The source of these data is paper PMC9492777, “Reaction-based fluorogenic probes for detecting protein cysteine oxidation in living cells” (Nature Communications, 2022).

This assay has as its target EGFR (epidermal growth factor receptor) (Homo sapiens, UniProt P00533). As to the kind of experiment: labelling in transfected HeLa cells, immunoprecipitation, in-gel fluorescence. The assay is classed as cell-based. The settings on record: covalent, at Cys797 sulfenic acid; 50 uM probe, 500 uM H2O2, 1 h, 37 °C.

Each structure is given as a SMILES string.

EGFR (epidermal growth factor receptor), sequence (P00533 25-1210): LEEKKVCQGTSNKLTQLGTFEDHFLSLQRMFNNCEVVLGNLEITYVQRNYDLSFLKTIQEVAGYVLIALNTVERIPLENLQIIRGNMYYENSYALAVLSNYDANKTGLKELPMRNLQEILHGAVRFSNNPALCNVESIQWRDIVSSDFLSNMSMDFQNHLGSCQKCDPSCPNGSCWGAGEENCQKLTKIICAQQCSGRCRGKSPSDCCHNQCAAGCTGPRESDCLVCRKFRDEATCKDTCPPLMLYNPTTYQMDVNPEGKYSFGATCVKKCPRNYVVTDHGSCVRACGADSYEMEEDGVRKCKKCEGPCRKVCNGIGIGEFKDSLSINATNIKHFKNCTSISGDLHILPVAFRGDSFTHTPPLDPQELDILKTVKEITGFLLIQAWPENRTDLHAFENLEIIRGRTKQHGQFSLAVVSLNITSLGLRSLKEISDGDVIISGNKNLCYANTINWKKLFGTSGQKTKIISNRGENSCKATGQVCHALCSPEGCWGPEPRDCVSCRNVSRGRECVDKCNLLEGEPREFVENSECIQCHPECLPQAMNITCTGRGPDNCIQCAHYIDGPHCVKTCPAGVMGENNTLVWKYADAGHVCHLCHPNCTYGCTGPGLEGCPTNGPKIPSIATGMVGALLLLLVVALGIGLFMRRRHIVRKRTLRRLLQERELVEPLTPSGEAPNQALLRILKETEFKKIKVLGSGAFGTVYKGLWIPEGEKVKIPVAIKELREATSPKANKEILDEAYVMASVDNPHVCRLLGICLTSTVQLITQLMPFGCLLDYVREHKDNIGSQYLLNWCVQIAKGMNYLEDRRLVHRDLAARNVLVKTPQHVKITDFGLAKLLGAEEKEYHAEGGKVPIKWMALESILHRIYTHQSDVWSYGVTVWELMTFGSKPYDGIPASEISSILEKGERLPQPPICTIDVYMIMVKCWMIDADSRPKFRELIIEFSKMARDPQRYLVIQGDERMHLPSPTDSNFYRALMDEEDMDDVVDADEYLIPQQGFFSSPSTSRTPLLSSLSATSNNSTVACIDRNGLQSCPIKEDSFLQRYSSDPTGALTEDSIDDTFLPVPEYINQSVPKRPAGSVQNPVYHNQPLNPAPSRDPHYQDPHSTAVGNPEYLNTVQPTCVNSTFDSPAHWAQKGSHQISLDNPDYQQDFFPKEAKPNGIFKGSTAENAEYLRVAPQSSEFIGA

Regarding `Nc1c(F)cc2c3c(cccc13)C(=O)CS2(=O)=O` [compound 7, CysOx1], the “labelling in transfected HeLa cells, immunoprecipitation, in-gel fluorescence” value is listed as “Wild-type EGFR exhibited detectable fluorescence signal from CysOx1 or CysOx2”.
`O=C1CS(=O)(=O)c2cc(F)c(N3CCC3)c3cccc1c23` [compound 8, CysOx2]: the “labelling in transfected HeLa cells, immunoprecipitation, in-gel fluorescence” value is on record as “Wild-type EGFR exhibited detectable fluorescence signal from CysOx1 or CysOx2”.
